Test results as given in patent US8088930B2, “Benzimidazole derivatives” (Hoffmann-La Roche Inc., priority 2008, dated 2012).
Where two headings read alike, the source gives them in different places.

Target: T1, FXR ligand binding domain (GST-FXR LBD fusion protein, human FXR aa 193-473) (Homo sapiens, UniProt Q96RI1)
T1 construct: fused on or other part: Glutathione-S-transferase (GST) fused N-terminally to the FXR LBD, used to capture the protein on glutathione SPA beads
T1 sequence (Q96RI1 211-486 limits assumed): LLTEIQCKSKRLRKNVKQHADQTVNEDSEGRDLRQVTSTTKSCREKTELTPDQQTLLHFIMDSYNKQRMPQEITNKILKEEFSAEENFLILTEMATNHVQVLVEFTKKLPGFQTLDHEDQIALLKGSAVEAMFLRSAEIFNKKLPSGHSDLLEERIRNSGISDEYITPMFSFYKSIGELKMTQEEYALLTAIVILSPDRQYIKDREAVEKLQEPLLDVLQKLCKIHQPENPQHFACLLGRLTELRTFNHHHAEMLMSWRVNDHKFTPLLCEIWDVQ
Assay: Radioligand binding assay (scintillation proximity, radioligand displacement)
Settings: 40 nM GST-FXR LBD on SPA beads, test compound 6×10^−9 M to 2.5×10^−5 M
Procedure, shortened: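 40 nM GST-FXR LBD, E. coli-expressed, bound to glutathione yttrium silicate SPA beads in 50 mM Hepes pH 7.4, 10 mM NaCl, 5 mM MgCl2, 0.01% CHAPS. Test compounds displace radioligand (e.g. 20 nM benzimidazolyl-acetamide ligand); bound ligand measured by scintillation proximity counting.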

Structure (SMILES)	IC50 (read-out: h-IC50 Binding) [µM]	IC50 (h-IC50 Binding) [µM]
Fc1cc2nc(-c3ccc(Cl)cc3)n(C(COc3ccc(-c4nnn[nH]4)cn3)C3CCCCC3)c2cc1F (centres unmarked) [Example 56, 2-(4-Chloro-phenyl)-1-{1-cyclohexyl-2-[5-(1H-tetrazol-5-yl)-pyridin-2-yloxy]-ethyl}-5,6-difluoro-1H-benzoimidazole]	0.05	–
CC(C)(OCc1ccc(C(=O)O)cc1)C(C1CCCCC1)n1c(-c2ccc(Cl)cc2)nc2cc(F)c(F)cc21 (centres unmarked) [Example 57, 4-{2-[2-(4-Chloro-phenyl)-5,6-difluoro-benzoimidazol-1-yl]-2-cyclohexyl-1,1-dimethyl-ethoxymethyl}-benzoic acid]	0.1	–
O=C(O)c1ccc(COCC(C2CCCCC2)n2c(-c3ccc(Cl)cc3)nc3cc(F)c(F)cc32)cc1 (centres unmarked) [Example 58, 4-{2-[2-(4-Chloro-phenyl)-5,6-difluoro-benzoimidazol-1-yl]-2-cyclohexyl-ethoxymethyl}-benzoic acid]	0.1	–
O=C(O)c1ccc(COCC(C2CCCCC2)n2c(-c3ccc(Cl)cc3)nc3cc(F)c(F)cc32)c(F)c1 (centres unmarked) [Example 59, 4-{2-[2-(4-Chloro-phenyl)-5,6-difluoro-benzoimidazol-1-yl]-2-cyclohexyl-ethoxymethyl}-3-fluoro-benzoic]	0.06	–
COc1cc(C(=O)O)ccc1COCC(C1CCCCC1)n1c(-c2ccc(Cl)cc2)nc2cc(F)c(F)cc21 (centres unmarked) [Example 60, 4-{2-[2-(4-Chloro-phenyl)-5,6-difluoro-benzoimidazol-1-yl]-2-cyclohexyl-ethoxymethyl}-3-methoxy-benzoic acid]	0.5	–
Cc1cc(OCC(C2CCCCC2)n2c(-c3ccc(Cl)cc3)nc3cc(F)c(F)cc32)cc(C)c1C(=O)O (centres unmarked) [Example 61, 4-{2-[2-(4-Chloro-phenyl)-5,6-difluoro-benzoimidazol-1-yl]-2-cyclohexyl-ethoxy}-2,6-dimethyl-benzoic acid]	1.4	–
Fc1cc2nc(-c3ccc(Cl)cc3)n(C(COc3ccc(-c4nnn[nH]4)cc3F)C3CCCCC3)c2cc1F (centres unmarked) [Example 66, 2-(4-Chloro-phenyl)-1-{1-cyclohexyl-2-[2-fluoro-4-(1H-tetrazol-5-yl)-phenoxy]-ethyl}-5,6-difluoro-1H-benzoimidazole]	0.01	–
O=C(O)c1ccc(COCC(C2CCCCC2)n2c(-c3ccc(Cl)cc3)nc3cc(F)c(F)cc32)nc1 (centres unmarked) [Example 67, 6-{2-[2-(4-Chloro-phenyl)-5,6-difluoro-benzoimidazol-1-yl]-2-cyclohexyl-ethoxymethyl}-nicotinic acid]	2.5	–
Cc1cc(-c2nnn[nH]2)cc(C)c1OCC(C1CCCCC1)n1c(-c2ccc(Cl)cc2)nc2cc(F)c(F)cc21 (centres unmarked) [Example 70, 2-(4-Chloro-phenyl)-1-{1-cyclohexyl-2-[2,6-dimethyl-4-(1H-tetrazol-5-yl)-phenoxy]-ethyl}-5,6-difluoro-1H-benzoimidazole]	0.01	–
COc1ccc(-c2nc3cc(F)c(F)cc3n2C(COc2ccc(C(=O)O)cn2)C2CCCCC2)c(OC)n1 (centres unmarked) [Example 73, 6-{2-Cyclohexyl-2-[2-(2,6-dimethoxy-pyridin-3-yl)-5,6-difluoro-benzoimidazol-1-yl]-ethoxy}-nicotinic acid]	0.1	–
O=C(O)c1cc(F)c(OCC(C2CCCCC2)n2c(-c3ccc(Cl)cc3)nc3cc(F)c(F)cc32)c(Cl)c1 (centres unmarked) [Example 76, 3-Chloro-4-{2-[2-(4-chloro-phenyl)-5,6-difluoro-benzoimidazol-1-yl]-2-cyclohexyl-ethoxy}-5-fluoro-benzoic acid]	0.004	–
CC(OCC(C1CCCCC1)n1c(-c2ccc(Cl)cc2)nc2cc(F)c(F)cc21)c1ccc(C(=O)O)cc1 (centres unmarked) [Example 79, 4-(1-{2-[2-(4-Chloro-phenyl)-5,6-difluoro-benzoimidazol-1-yl]-2-cyclohexyl-ethoxy}-ethyl)-benzoic acid]	0.6	–
COc1ccc(-c2nc3cc(F)c(F)cc3n2C(COc2c(C)cc(C(=O)O)cc2C)C2CCCCC2)c(OC)n1 (centres unmarked) [Example 82, 4-{2-Cyclohexyl-2-[2-(2,6-dimethoxy-pyridin-3-yl)-5,6-difluoro-benzoimidazol-1-yl]-ethoxy}-3,5-dimethyl-benzoic acid]	0.001	–
O=C(O)c1cc(F)c(OCC(C2CCCCC2)n2c(-c3ccc(Cl)cc3)nc3cc(F)c(F)cc32)c(F)c1 (centres unmarked) [Example 85, 4-{2-[2-(4-Chloro-phenyl)-5,6-difluoro-benzoimidazol-1-yl]-2-cyclohexyl-ethoxy}-3,5-difluoro-benzoic acid]	0.01	–
CC(C)(Oc1ccc(OCC(C2CCCCC2)n2c(-c3ccc(Cl)cc3)nc3cc(F)c(F)cc32)cc1)C(=O)O (centres unmarked) [Example 90, 2-(4-{2-[2-(4-Chloro-phenyl)-5,6-difluoro-benzoimidazol-1-yl]-2-cyclohexyl-ethoxy}-phenoxy)-2-methyl-propionic acid]	0.2	–
O=C(O)COc1ccc(OCC(C2CCCCC2)n2c(-c3ccc(Cl)cc3)nc3cc(F)c(F)cc32)cc1 (centres unmarked) [Example 91, (4-{2-[2-(4-Chloro-phenyl)-5,6-difluoro-benzoimidazol-1-yl]-2-cyclohexyl-ethoxy}-phenoxy)-acetic acid]	–	0.06
Cc1cc(OCC(C2CCCCC2)n2c(-c3ccc(Cl)cc3)nc3cc(F)c(F)cc32)ccc1OCC(=O)O (centres unmarked) [Example 92, (4-{2-[2-(4-Chloro-phenyl)-5,6-difluoro-benzoimidazol-1-yl]-2-cyclohexyl-ethoxy}-2-methyl-phenoxy)-acetic acid]	0.09	–
Cc1c(OCC(C2CCCCC2)n2c(-c3ccc(Cl)cc3)nc3cc(F)c(F)cc32)ccc(OC(C)(C)C(=O)O)c1C (centres unmarked) [Example 93, 2-(4-{2-[2-(4-Chloro-phenyl)-5,6-difluoro-benzoimidazol-1-yl]-2-cyclohexyl-ethoxy}-2,3-dimethyl-phenoxy)-2-methyl-propionic acid]	0.3	–
CC(C)(Oc1ccc(OCC(C2CCCCC2)n2c(-c3ccc(Cl)cc3)nc3cc(F)c(F)cc32)c(F)c1)C(=O)O (centres unmarked) [Example 94, 2-(4-{2-[2-(4-Chloro-phenyl)-5,6-difluoro-benzoimidazol-1-yl]-2-cyclohexyl-ethoxy}-3-fluoro-phenoxy)-2-methyl-propionic acid]	0.1	–
CC(C)(Oc1cccc(OCC(C2CCCCC2)n2c(-c3ccc(Cl)cc3)nc3cc(F)c(F)cc32)c1)C(=O)O (centres unmarked) [Example 95, 2-(3-{2-[2-(4-Chloro-phenyl)-5,6-difluoro-benzoimidazol-1-yl]-2-cyclohexyl-ethoxy}-phenoxy)-2-methyl-propionic acid]	0.6	–
COc1ccc(-c2nc3cc(F)c(F)cc3n2C(COc2c(F)cc(C(=O)O)cc2F)C2CCCCC2)c(OC)n1 (centres unmarked) [Example 96, 4-{2-Cyclohexyl-2-[2-(2,6-dimethoxy-pyridin-3-yl)-56-difluoro-benzoimidazol-1-yl]-ethoxy}-3,5-difluoro-benzoic acid]	0.002	–
COc1ccc(-c2nc3cc(F)c(F)cc3n2C(COc2c(C)cc(-c3nnn[nH]3)cc2C)C2CCCCC2)c(OC)n1 (centres unmarked) [Example 99, 1-{1-cyclohexyl-2-[2,6-dimethyl-4-(1H-tetrazol-5-yl)-phenoxy]-ethyl}-2-(2,6-dimethoxy-pyridin-3-yl)-5,6-difluoro-1H-benzoimidazole]	0.002	–
O=C(O)c1cc(F)c(OCC(C2CCCCC2)n2c(-c3ccc(Cl)cc3)nc3ccccc32)c(F)c1 (centres unmarked) [Example 102, 4-{2-[2-(4-Chloro-phenyl)-benzoimidazol-1-yl]-2-cyclohexyl-ethoxy}-3,5-difluoro-benzoic acid]	0.03	–
Cc1cc(C(=O)O)cc(C)c1OCC(C1CCCCC1)n1c(-c2ccc(Cl)cc2)nc2ccccc21 (centres unmarked) [Example 105, 4-{2-[2-(4-Chloro-phenyl)-benzoimidazol-1-yl]-2-cyclohexyl-ethoxy}-3,5-dimethyl-benzoic acid]	0.04	–
O=C(O)c1cc(F)c(OCC(C2CCCCC2)n2c(-c3ccc(Cl)cc3)nc3ccccc32)c(Cl)c1 (centres unmarked) [Example 108, 3-Chloro-4-{2-[2-(4-chloro-phenyl)-benzoimidazol-1-yl]-2-cyclohexyl-ethoxy}-5-fluoro-benzoic acid]	0.01	–
Cc1cc(-c2nnn[nH]2)cc(C)c1OCC(C1CCCCC1)n1c(-c2ccc(Cl)cc2)nc2ccccc21 (centres unmarked) [Example 111, 2-(4-Chloro-phenyl)-1-{1-cyclohexyl-2-[2,6-dimethyl-4-(1H-tetrazol-5-yl)-phenoxy]-ethyl}-1H-benzoimidazole]	0.02	–
O=C(O)c1cnc(OCC(C2CCCCC2)n2c(-c3ccc(Cl)cc3)nc3cc(F)c(F)cc32)c(Br)c1 (centres unmarked) [Example 114, 5-Bromo-6-{2-[2-(4-chloro-phenyl)-5,6-difluoro-benzoimidazol-1-yl]-2-cyclohexyl-ethoxy}-nicotinic acid]	0.06	–
O=C(O)C1(Oc2ccc(OCC(C3CCCCC3)n3c(-c4ccc(Cl)cc4)nc4cc(F)c(F)cc43)cc2)CCC1 (centres unmarked) [Example 117, 1-(4-{2-[2-(4-Chloro-phenyl)-5,6-difluoro-benzoimidazol-1-yl]-2-cyclohexyl-ethoxy}-phenoxy)-cyclobutanecarboxylic acid]	0.04	–
O=C(O)C1(Oc2ccc(OCC(C3CCCCC3)n3c(-c4ccc(Cl)cc4)nc4cc(F)c(F)cc43)cc2)CC1 (centres unmarked) [Example 120, 1-(4-{2-[2-(4-Chloro-phenyl)-5,6-difluoro-benzoimidazol-1-yl]-2-cyclohexyl-ethoxy}-phenoxy)-cyclopropanecarboxylic acid]	0.03	–
